In data set [1] the test system is ultraviolet erythema of the skin on the back of the guinea pig. In words: Ultraviolet erythema of the skin on the back (antiphlogistic effect). In kind it is in vivo. The settings on record: for ED50: Cavia porcellus, read-out: Retardation of the UV-Erythema by 50% by mg/kg oral; for Retardation of the UV-Erythema, Relative Effect: Phenylbutazon = 1.0.
Data set [2] deals with Carrageenin edema of the rear paw of the rat. Briefly: Carrageenin edema of the rear paw (antiphlogistic effect). Format: in vivo. The following applies: for Retardation of the Carrageenin Edema, Relative Effect: Phenylbutazon = 1.0; for ED40: read-out: Retardation of the Carrageenin Edema by 40% by mg/kg oral.
A short description of another data set: in vivo. The following applies: mouse, ip.
Another data set relates to rat. In words: Lowering of the normal temperature of the rat. In kind it is in vivo. The settings on record: for ED (15 degC temperature lowering): ip, read-out: dose i.p. that lowered the normal temperature of the rat by 15.° C. The protocol: In addition thereto, the new pyrazole compounds of the invention effect a lowering of the temperature in mammalians: 60 mg/kg of compound A and 25 mg/kg of compound L, administered i.p. to the rat lowered the normal temperature of the rat by 15.° C.

In data set [3] the test system is mouse. Briefly: Analgesic effect: delay in the defense reaction of the mouse upon thermal stimulation of the root of the tail by a heat beam. In kind it is in vivo. The following applies: oral; for ED20 / ED40: Mus musculus; for ED20: mean delay in defense reaction by 20% during 2 hours; for ED40: mean delay in defense reaction by 40% during 2 hours; for ED20 Relative / ED40 Relative: relative to aminophenazone. The protocol: (§1) The analgesic effect is measured as the mean delay in the defense reaction of the mouse by 20% (ED20) and 40% (ED40) during 2 hours upon thermal stimulation of the root of the tail by a heat beam relative to aminophenazone.

Assay in data set [4]: as above
Format: in vivo. The settings on record: mouse, in vivo; LD5 I.P. / ED40 oral; read-out: Therapeutic Index LD5/ED40. How it is done: as §1

Data set [5] concerns mouse. The settings on record: Table II; I.P.
Protocol: (§2) ^3) Dose, at which 50% of the animals died within 72 hours after
administration of the substance
For data set [6] the following is noted: cited from earlier work.
The mark [7] stands for this setting: rat, lowering by 15.° C. (so in the source).
Setting [8] is: guinea pig, oral, dose for 50% retardation.
[9] abbreviates: rat, oral, dose for 40% retardation.
Setting [10] is: Toxicity LD50 after a single dose in the mouse, Table I, i.p., 50% of the animals died within 72 hours.

Like-named read-outs stand apart in the source and are kept apart here.

Protocol for in vivo: as §2
administration of the substance

On to `O=C(O)Cc1c(-c2ccccc2)nn(-c2ccccc2)c1-c1ccccc1` [A, 1,3,5-triphenyl-pyrazol-4-acetic acid], for which the ED50 in data set [1] (po) was 3 mg/kg. In data set [1] (guinea pig, oral), the “Retardation of the UV-Erythema, Relative Effect” value amounted to 5.3. For the same molecule, the “Retardation of the Carrageenin Edema, Relative Effect” value in data set [2] (rat, oral) was 6.0. Also, in data set [2] (Rattus norvegicus, po), the ED40 was determined as 5 mg/kg. The LD50 – broadly, the dose expected to kill half of the subjects tested – at 72 h in the data set “in vivo” worked out at 312 mg/kg. Further, the “lowering of the normal temperature of the rat” value with rat (60 mg/kg i.p.) was 15. ° C. The ED (15 degC temperature lowering) with rat (Rattus norvegicus) turned out to be 60 mg/kg.
Take `Cc1c(N(C)C)c(=O)n(-c2ccccc2)n1C` [Aminophenazone, reference compound]: in the data set with mouse [3], the ED20 turned out to be 50 mg/kg and the ED40 is 140 mg/kg. Besides, the selectivity ratio in data set [4] stood at 1.9. This molecule had an LD50 at 72 h in “in vivo” of 330 mg/kg. For the same molecule, the LD5 in the data set on mouse [5] is reported as 270 mg/kg. For the same molecule, the ED (15 degC temperature lowering) with rat (setting [7]) came to 70 mg/kg.
For `O=C(O)Cc1c(-c2ccco2)nn(-c2ccccc2)c1-c1ccco1` [B, 1-phenyl-3,5-di-(2-furyl)-pyrazol-4-acetic acid], in data set [1] (setting [8]), the ED50 came to 1.5 mg/kg. In addition, in data set [1] (guinea pig, oral), the “Retardation of the UV-Erythema, Relative Effect” value is 10.7. For the same molecule, in the data set on mouse [3], the ED20 amounted to 10 mg/kg, the ED40 is 50 mg/kg, the “ED20 Relative” value is recorded as 5.0 and the “ED40 Relative” value is 2.8. Besides, in data set [4], the selectivity ratio came out at 3.8. Moreover, the “Retardation of the Carrageenin Edema, Relative Effect” value in data set [2] (rat, oral) is 3.0. Further, the ED40 in data set [2] (setting [9]) came out at 10 mg/kg. The same molecule yielded a median lethal dose (LD50) at 72 h in the data set “in vivo” (LD50, Table II, I.P.) of 373 mg/kg. This molecule also yielded a median lethal dose (LD50) at 72 h in “in vivo” (setting [10]) of 370 mg/kg. Moreover, the LD5 in the data set with mouse [5] was 190 mg/kg.
Consider `O=C(O)Cc1c(-c2ccccc2)nn(-c2cccnc2)c1-c1ccccc1` [C, 3,5-diphenyl-1-(3-pyridyl)-pyrazol-4-acetic acid], for which, in data set [1] (setting [8]), the ED50 stood at 2.5 mg/kg. Also, in data set [1] (guinea pig, oral), the “Retardation of the UV-Erythema, Relative Effect” value is reported as 6.4. Also, in data set [2] (rat, oral), the “Retardation of the Carrageenin Edema, Relative Effect” value turned out to be 1.5. In addition, the ED40 in data set [2] (setting [9]) was found to be 20 mg/kg. Further, in the data set “in vivo” (setting [10]), the LD50 at 72 h worked out at 1150 mg/kg.
For the molecule `O=C(O)Cc1cn(-c2ccccc2)nc1-c1ccc(Cl)cc1` [D, 1-phenyl-3-(p-chlorophenyl)-pyrazol-4-acetic acid], the ED50 in data set [1] (setting [8]) was 3 mg/kg. Further, the ED40 in data set [2] (setting [9]) turned out to be 2.5 mg/kg.
For the molecule `CCCCn1nc(C)c(CC(=O)O)c1C` [E, 3,5-dimethyl-1-n-butyl-pyrazol-4-acetic acid], the “Retardation of the Carrageenin Edema, Relative Effect” value in data set [2] (rat, oral) is given as 0.6. Also, in data set [2] (setting [9]), the ED40 came to 50 mg/kg. This molecule registered an LD50 at 72 h in the data set “in vivo” (setting [10]) of 1400 mg/kg.
The like results for `COc1ccc(-n2nc(C)c(CC(=O)O)c2C)cc1` [F, 3,5-dimethyl-1-(p-methoxyphenyl)-pyrazol-4-acetic acid] were, in that order, 0.6, 50 mg/kg and 1000 mg/kg.
Take `Cc1nn(-c2ccccc2)c(-c2ccccc2)c1CC(=O)O` [G, 3-methyl-1,5-diphenyl-pyrazol-4-acetic acid]: the ED50 in data set [1] (setting [8]) is 20 mg/kg. Besides, the “Retardation of the UV-Erythema, Relative Effect” value in data set [1] (guinea pig, oral) came out at 0.8. In the data set “in vivo” (setting [10]), this molecule registered an LD50 at 72 h of 500 mg/kg.
Regarding `CC(C(=O)O)c1c(-c2ccccc2)nn(-c2ccccc2)c1-c1ccccc1` (stereo not drawn) [H, α-methyl-1,3,5-triphenyl-pyrazol-4-acetic acid], the ED50 in data set [1] (setting [8]) came to 5 mg/kg. Moreover, the “Retardation of the UV-Erythema, Relative Effect” value in data set [1] (guinea pig, oral) was 3.2. For the same molecule, the “Retardation of the Carrageenin Edema, Relative Effect” value in data set [2] (rat, oral) turned out to be 1.0. The ED40 in data set [2] (setting [9]) turned out to be 30 mg/kg. Also, the LD50 at 72 h in “in vivo” (setting [10]) is 199 mg/kg.
`O=C(O)Cc1cnn(-c2ccccc2)c1-c1ccc(Cl)cc1` [I, 1-phenyl-5-(p-chlorophenyl)-pyrazol-4-acetic acid]: in the data set on mouse [3], the ED20 came to 50 mg/kg, the ED40 amounted to 70 mg/kg, the “ED20 Relative” value is given as 1.0 and the “ED40 Relative” value was found to be 2.0. In addition, in data set [4], the selectivity ratio worked out at 2.6. This molecule yielded a 50% lethal dose (LD50) at 72 h in “in vivo” (LD50, Table II, I.P.) of 279 mg/kg. This molecule came in with an LD5 in the data set with mouse [5] of 180 mg/kg.
`COc1ccc2c(c1)c(CC(=O)O)c(C)n2C(=O)c1ccc(Cl)cc1` [Indomethacin, 2-methyl-5-methoxy-1-(p-chlorobenzoyl)-indol-3-acetic acid, reference compound]: in data set [1] (po), the ED50 came to 20 mg/kg. Also, the “Retardation of the UV-Erythema, Relative Effect” value in data set [1] (guinea pig, oral) amounted to 0.8. In addition, the side effects entry in data set [6] (Chem. Eng. News 46 (1968)) is given as “many undesirable side effects”. Besides, the “antiphlogistic, analgesic and antipyretic effectiveness compared with 4-n-butyl-1,2-diphenyl-3,5-dioxopyracoline” value in data set [6] (J. Am. Chem. So. 85, 488 (1963)) is reported as “surpassing in this respect the effectiveness”. Also, the “Retardation of the Carrageenin Edema, Relative Effect” value in data set [2] (rat, oral) came to 7.5. For the same molecule, the ED40 in data set [2] (Rattus norvegicus, po) was 4 mg/kg. The molecule further gave an LD50 at 72 h in the data set “in vivo” of 45 mg/kg.
Regarding `CCCCn1nc(-c2ccccc2)c(CC(=O)O)c1-c1ccccc1` [K, 1-n-butyl-3,5-diphenyl-pyrazol-4-acetic acid], in the data set on mouse [3], the ED20 came to 20 mg/kg, the ED40 worked out at 80 mg/kg, the “ED20 Relative” value is recorded as 2.5 and the “ED40 Relative” value is 1.8. In data set [4], the selectivity ratio amounted to 4.5. The molecule also gave an LD50 at 72 h in the data set “in vivo” (LD50, Table II, I.P.) of 430 mg/kg. Besides, the LD5 in the data set on mouse [5] is 360 mg/kg.
Turning to `O=C(O)Cc1c(-c2ccccc2)nn(-c2ccc(Cl)cc2)c1-c1ccccc1` [L, 3,5-diphenyl-1-(p-chlorophenyl)-pyrazol-4-acetic acid], in the data set with mouse [3], the ED20 worked out at 15 mg/kg, the ED40 is 55 mg/kg, the “ED20 Relative” value came out at 3.3 and the “ED40 Relative” value is recorded as 2.5. In the data set “in vivo” (LD50, Table II, I.P.), this molecule gave a 50% lethal dose (LD50) at 72 h of around 80 mg/kg. Moreover, the lowering of the normal temperature of the rat with rat (25 mg/kg i.p.) stood at 1.5 ° C. The ED (15 degC temperature lowering) in the data set on rat (setting [7]) is 25 mg/kg.
For the molecule `O=C(O)Cc1c(-c2ccc(Cl)cc2)nn(-c2ccccc2)c1-c1ccc(Cl)cc1` [M, 1-phenyl-3,5-bis-(p-chlorophenyl)-pyrazol-4-acetic acid], in the data set on mouse [3], the ED20 amounted to 7 mg/kg, the ED40 stood at 20 mg/kg, the “ED20 Relative” value amounted to 7.1 and the “ED40 Relative” value is reported as 7.0. The selectivity ratio in data set [4] was 1.9. Besides, the LD50 at 72 h in the data set “in vivo” (LD50, Table II, I.P.) came out at 51 mg/kg. Also, in the data set with mouse [5], the LD5 was 38 mg/kg.
As to `COc1cccc(-c2nn(-c3ccccc3)c(-c3cccc(OC)c3)c2CC(=O)O)c1` [N, 1-phenyl-3,5-bis-(m-methoxyphenyl)-pyrazol-4-acetic acid], in the data set with mouse [3], the ED20 came to 30 mg/kg, the ED40 is 55 mg/kg, the “ED20 Relative” value is 1.7 and the “ED40 Relative” value stood at 2.5. Also, the selectivity ratio in data set [4] stood at 3.6. In “in vivo” (LD50, Table II, I.P.), this molecule yielded an LD50 at 72 h of 312 mg/kg. This molecule also came in with an LD5 with mouse [5] of 200 mg/kg.
`CCOC(=O)Cc1c(-c2ccccc2)nn(-c2cccc(C(F)(F)F)c2)c1-c1ccccc1` [O, 3,5-diphenyl-1-(α,α,α-trifluoro-m-tolyl)-pyrazol-4-acetic acid-ethyl ester]: in the data set on mouse [3], the ED20 stood at 50 mg/kg, the ED40 worked out at 70 mg/kg, the “ED20 Relative” value is listed as 1.0 and the “ED40 Relative” value is 2.0.
On to `Cc1nn(-c2ccccc2)c(C)c1CC(N)=O` [P, 3,5-dimethyl-1-phenyl-pyrazol-4-acetamide], for which, in the data set with mouse [3], the ED20 is 50 mg/kg, the ED40 is 150 mg/kg, the “ED20 Relative” value came out at 1.0 and the “ED40 Relative” value came out at 0.9. Moreover, in data set [4], the selectivity ratio is 3.3. The molecule also gave an LD50 at 72 h in “in vivo” (LD50, Table II, I.P.) of 500 mg/kg. The LD5 with mouse [5] was 500 mg/kg.
`CCCCC1C(=O)N(c2ccccc2)N(c2ccccc2)C1=O` [Phenylbutazon, reference compound]: the ED50 in data set [1] (setting [8]) came to 16 mg/kg. The ED20 with mouse [3] is 150 mg/kg. Besides, the ED40 in data set [2] (setting [9]) came to 30 mg/kg.
`Cc1nn(-c2ccccc2)c(C)c1CC#N` [Q, 3,5-dimethyl-1-phenyl-pyrazol-4-acetonitrile]: in the data set with mouse [3], the ED20 was determined as 20 mg/kg, the ED40 was determined as 40 mg/kg, the “ED20 Relative” value came to 2.5 and the “ED40 Relative” value is listed as 3.5.
With `COc1ccc(-c2nn(-c3ccccc3)cc2CC#N)cc1` [R, 1-phenyl-3-(p-methoxyphenyl)-pyrazol-4-acetonitrile], in the data set on mouse [3], the ED20 was found to be 50 mg/kg, the ED40 was determined as 80 mg/kg, the “ED20 Relative” value came out at 1.0 and the “ED40 Relative” value was 1.8.

The values above are taken from US4146721A, “Pyrazol-4-acetic acid compounds” (priority 1970, dated 1979).
